Laboratory results as given in ChEMBL document CHEMBL4507319 (2021).

Legend:
[1] = target: T1, Ephrin type-A receptor 1 (Homo sapiens) (UniProt P21709); conditions: Compound concentration 1000.0 nM
T1 sequence (whole entry): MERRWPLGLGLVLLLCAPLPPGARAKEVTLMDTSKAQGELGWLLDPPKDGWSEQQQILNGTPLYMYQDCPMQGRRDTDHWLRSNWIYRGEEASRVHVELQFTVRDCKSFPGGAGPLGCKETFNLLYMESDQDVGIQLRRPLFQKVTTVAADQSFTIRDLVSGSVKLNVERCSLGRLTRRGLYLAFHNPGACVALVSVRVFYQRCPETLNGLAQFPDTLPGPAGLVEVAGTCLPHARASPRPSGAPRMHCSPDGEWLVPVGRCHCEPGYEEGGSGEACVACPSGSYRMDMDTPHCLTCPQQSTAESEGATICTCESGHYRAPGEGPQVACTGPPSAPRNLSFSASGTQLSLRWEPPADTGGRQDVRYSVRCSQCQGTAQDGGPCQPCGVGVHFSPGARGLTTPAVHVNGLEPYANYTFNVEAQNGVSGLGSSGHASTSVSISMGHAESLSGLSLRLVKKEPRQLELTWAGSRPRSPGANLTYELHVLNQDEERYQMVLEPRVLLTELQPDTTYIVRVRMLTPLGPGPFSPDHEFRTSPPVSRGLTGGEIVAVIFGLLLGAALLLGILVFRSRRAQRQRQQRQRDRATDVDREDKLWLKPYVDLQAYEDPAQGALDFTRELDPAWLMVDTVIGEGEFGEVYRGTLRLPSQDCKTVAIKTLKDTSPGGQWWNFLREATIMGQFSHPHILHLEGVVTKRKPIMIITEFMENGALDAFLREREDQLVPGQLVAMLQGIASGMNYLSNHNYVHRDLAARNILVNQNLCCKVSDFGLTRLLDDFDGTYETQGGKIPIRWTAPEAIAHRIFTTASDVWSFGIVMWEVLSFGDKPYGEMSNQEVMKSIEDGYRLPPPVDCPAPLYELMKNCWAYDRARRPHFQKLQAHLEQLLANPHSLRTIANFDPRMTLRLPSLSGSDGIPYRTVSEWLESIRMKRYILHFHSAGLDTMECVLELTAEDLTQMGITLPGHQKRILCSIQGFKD

[2] = test system: Proto-oncogene tyrosine-protein kinase receptor Ret (Homo sapiens), P07949 [V804L]; conditions: Compound concentration 1000.0 nM
Sequence of Proto-oncogene tyrosine-protein kinase receptor Ret (Homo sapiens), P07949 [V804L] (P07949 whole entry V804L): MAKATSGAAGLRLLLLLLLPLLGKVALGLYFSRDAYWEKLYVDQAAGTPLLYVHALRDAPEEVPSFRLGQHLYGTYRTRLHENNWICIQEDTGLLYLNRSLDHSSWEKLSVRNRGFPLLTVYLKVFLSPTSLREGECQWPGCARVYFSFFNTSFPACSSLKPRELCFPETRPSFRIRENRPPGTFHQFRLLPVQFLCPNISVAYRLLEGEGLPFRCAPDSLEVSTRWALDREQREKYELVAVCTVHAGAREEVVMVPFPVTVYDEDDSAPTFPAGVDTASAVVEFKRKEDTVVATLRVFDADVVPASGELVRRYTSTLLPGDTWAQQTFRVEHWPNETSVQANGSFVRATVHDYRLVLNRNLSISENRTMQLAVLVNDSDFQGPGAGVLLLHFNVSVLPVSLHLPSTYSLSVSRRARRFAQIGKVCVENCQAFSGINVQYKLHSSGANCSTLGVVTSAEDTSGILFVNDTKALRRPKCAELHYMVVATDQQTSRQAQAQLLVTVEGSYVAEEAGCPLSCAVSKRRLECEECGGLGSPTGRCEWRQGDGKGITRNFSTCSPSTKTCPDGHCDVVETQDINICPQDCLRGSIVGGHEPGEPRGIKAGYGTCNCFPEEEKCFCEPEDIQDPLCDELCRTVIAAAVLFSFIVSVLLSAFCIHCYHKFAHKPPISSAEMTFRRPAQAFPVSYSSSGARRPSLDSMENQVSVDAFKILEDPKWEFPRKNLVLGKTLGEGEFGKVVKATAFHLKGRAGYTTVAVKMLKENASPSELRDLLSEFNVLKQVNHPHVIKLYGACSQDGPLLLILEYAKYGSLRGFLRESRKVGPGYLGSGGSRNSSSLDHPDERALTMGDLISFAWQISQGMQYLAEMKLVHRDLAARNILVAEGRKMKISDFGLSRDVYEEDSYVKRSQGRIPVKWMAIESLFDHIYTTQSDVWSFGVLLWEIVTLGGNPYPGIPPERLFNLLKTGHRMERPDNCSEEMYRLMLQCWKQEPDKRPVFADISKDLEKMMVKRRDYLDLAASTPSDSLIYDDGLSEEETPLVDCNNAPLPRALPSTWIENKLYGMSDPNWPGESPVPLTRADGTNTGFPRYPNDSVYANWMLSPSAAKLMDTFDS

[3] = target: T2, SNF-related serine/threonine-protein kinase (Homo sapiens) (UniProt Q9NRH2); conditions: Compound concentration 1000.0 nM
T2 sequence (whole entry): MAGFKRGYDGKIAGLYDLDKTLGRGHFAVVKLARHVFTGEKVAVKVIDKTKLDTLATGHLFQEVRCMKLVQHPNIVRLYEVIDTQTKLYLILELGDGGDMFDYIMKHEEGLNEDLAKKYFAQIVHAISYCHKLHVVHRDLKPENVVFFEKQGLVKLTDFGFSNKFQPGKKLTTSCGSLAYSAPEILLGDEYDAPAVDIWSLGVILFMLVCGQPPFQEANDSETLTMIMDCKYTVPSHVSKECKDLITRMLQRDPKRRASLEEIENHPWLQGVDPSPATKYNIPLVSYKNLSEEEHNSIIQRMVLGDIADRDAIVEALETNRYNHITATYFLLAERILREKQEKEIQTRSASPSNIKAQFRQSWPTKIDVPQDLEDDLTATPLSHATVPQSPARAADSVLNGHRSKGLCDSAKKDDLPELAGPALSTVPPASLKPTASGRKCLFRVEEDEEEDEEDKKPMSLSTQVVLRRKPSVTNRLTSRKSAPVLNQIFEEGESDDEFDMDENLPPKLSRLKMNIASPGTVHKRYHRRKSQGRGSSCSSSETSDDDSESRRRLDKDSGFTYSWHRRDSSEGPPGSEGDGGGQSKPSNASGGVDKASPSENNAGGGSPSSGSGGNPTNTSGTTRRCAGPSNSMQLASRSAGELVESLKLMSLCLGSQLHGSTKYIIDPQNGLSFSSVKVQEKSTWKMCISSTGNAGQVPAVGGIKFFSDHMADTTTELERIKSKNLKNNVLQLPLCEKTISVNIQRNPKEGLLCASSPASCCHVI

[4] = target: Histamine H1 receptor (Homo sapiens) (UniProt P35367); conditions: Compound concentration 10.0 uM
Sequence of Histamine H1 receptor (Homo sapiens) (P35367 whole entry): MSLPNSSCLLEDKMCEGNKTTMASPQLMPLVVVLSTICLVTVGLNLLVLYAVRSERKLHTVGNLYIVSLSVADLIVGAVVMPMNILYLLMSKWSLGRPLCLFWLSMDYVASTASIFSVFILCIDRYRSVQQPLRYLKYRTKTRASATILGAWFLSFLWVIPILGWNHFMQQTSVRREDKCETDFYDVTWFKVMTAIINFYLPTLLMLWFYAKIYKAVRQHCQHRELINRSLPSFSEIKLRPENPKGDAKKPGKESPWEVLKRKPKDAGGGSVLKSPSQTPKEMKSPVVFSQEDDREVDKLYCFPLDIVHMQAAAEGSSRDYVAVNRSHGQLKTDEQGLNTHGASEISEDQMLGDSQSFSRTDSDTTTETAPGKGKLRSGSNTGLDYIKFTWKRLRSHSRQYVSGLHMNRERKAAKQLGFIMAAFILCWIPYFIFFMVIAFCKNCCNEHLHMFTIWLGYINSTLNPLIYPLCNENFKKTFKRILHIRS

[5] = target: T3, TGF-beta receptor type-1 (Homo sapiens) (UniProt P36897); conditions: Compound concentration 1000.0 nM
T3 sequence (whole entry): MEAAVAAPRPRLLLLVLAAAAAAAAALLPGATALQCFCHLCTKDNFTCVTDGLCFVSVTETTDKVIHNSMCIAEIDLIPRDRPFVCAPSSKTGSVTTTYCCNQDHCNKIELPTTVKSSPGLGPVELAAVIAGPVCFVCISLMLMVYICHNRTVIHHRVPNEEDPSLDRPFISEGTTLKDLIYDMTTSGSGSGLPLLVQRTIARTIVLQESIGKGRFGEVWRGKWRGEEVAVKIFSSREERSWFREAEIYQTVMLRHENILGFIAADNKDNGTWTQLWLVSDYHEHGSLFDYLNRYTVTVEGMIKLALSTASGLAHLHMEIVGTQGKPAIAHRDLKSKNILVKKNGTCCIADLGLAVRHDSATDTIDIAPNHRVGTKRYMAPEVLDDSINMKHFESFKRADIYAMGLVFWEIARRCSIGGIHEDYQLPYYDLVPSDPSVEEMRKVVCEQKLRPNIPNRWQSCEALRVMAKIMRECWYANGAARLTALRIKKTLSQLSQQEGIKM

[6] = target: T4, Serine/threonine-protein kinase DCLK3 (Homo sapiens) (UniProt Q9C098); conditions: Compound concentration 1000.0 nM
T4 sequence (whole entry): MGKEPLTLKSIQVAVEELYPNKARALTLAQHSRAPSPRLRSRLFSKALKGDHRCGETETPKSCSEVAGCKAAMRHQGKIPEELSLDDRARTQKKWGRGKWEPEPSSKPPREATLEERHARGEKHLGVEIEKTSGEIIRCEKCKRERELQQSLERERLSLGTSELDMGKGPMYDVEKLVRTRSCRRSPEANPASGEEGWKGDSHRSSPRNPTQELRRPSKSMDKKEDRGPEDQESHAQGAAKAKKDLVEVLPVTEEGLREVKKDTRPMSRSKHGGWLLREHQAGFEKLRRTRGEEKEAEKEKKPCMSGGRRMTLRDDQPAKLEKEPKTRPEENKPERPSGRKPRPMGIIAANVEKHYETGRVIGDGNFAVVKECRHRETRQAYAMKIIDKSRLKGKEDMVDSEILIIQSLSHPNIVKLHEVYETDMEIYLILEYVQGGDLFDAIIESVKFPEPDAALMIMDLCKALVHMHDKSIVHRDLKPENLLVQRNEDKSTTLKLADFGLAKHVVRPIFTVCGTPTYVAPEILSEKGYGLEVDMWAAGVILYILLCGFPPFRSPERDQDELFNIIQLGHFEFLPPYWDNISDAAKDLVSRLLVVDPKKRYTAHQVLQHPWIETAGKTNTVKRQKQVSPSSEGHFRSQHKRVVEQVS

Compound	residual activity [1] [%]	residual activity [2] [%]	residual activity [3] [%]	inhibition [4] [%]	residual activity [5] [%]	residual activity [6] [%]
CC1=C(C#N)C(c2ccc3c(c2)c(NC(=O)c2ccccc2C)nn3C)C(C#N)=C(C)N1 [BAY-974]	88	100	100	0.94	100	89
CCc1ccccc1C(=O)Nc1n[nH]c2c(C)c(F)c(C3C(C#N)=C(C)N(C)C(C)=C3C#N)cc12 [BAY-3827]	60	25	100	6.23	58	82
